Among the data in BindingDB's records for doi:10.1016/j.bmc.2011.05.064 (Glaxosmithkline, 2011) are EC50 values, retold here.

This test addresses Beta-1 adrenergic receptor (Homo sapiens, UniProt P08588). In words: Agonist activity at human adrenergic beta1 receptor expressed in CHO cells assessed as cAMP accumulation. (cAMP levels reflect the balance of adenylyl cyclase and phosphodiesterase activity.)

Beta-1 adrenergic receptor, sequence (P08588 whole entry): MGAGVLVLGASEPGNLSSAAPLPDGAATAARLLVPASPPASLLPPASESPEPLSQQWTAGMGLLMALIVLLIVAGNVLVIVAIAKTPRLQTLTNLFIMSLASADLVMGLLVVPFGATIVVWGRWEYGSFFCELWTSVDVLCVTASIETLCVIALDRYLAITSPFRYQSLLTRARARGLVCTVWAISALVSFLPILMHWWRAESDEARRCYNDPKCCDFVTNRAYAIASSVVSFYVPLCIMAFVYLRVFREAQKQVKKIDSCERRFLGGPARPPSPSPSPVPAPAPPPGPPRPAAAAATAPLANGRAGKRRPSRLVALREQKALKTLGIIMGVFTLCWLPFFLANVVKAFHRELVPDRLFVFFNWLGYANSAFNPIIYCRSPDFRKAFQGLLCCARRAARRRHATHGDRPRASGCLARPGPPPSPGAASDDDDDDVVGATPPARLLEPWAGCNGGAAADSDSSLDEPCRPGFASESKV

Consider `O=c1[nH]cc(O)n1-c1ccc(CCCCOCCCCCCNC[C@H](O)c2ccc(O)c(CO)c2)cc1`, for which the 50% effective concentration (EC50) is 0.079 µM.

For orientation: EC50 means the concentration giving half of the maximal effect.
